From article PMC11879280, “Antimicrobial activity of peptoids against Metallo-β-lactamase-producing Klebsiella pneumoniae, Acinetobacter baumannii, Pseudomonas aeruginosa, and other WHO priority pathogens, including Candida auris” (Journal of Applied Microbiology, 2025)
In brackets after ≈: the same amount, converted by molar mass. Like-named read-outs stand apart in the source and are kept apart here.

Experiments:
C. auris CBS12373 [1] = assay: Broth microdilution MIC; assay type: cell-based, Candida auris; conditions: for MIC against C. auris / MIC: CBS 12 373; for MIC against C. auris: RPMI 1640 with MOPS, 5 × 10^3 CFU ml^−1, ≥90% reduction (≥50% for fluconazole); for MIC: value in brackets, read-out: MIC against C. auris
C. auris CBS 10913 = assay: microbe, parasite or virus in culture; assay type: cell-based, Candida auris; conditions: C. auris CBS 10913
Experimental: Amphotericin B was tested in parallel as a positive control (Ramesh et al. [2023]).

C. auris CBS10913 [2] = conditions: CBS 10 913; RPMI 1640 with MOPS, 5 × 10^3 CFU ml^−1; ≥90% reduction (≥50% for fluconazole)
C. auris CBS10913 [3] = assay: microbe, parasite or virus in culture; conditions: Candidozyma auris, read-out: MIC against C. auris
C. auris CBS10913 [4] = assay: Checkerboard microdilution synergy test; assay type: cell-based, Candida auris
Experimental: (§1) The checkerboard microdilution test was performed to determine the fractional inhibitory concentration (FIC) of selected antimicrobials and assess whether the combination had synergistic, antagonistic, or indifferent effects (Anon [2016]) against strains of K. pneumoniae or C. auris. […] Additionally, a strain susceptible to ciprofloxacin was tested to observe the outcome of its combination with TM8 as a representative case from susceptible isolates. […] Then, 10 µl of bacteria (5 × 10^6 CFU ml^−1) or C. auris (2.5 × 10^4 CFU ml^−1) were added to each well, except for the sterility control well. […] The sterility control wells contained only MHB (or RPMI in case of C. auris), and the growth control contained 110 µl of microbial inoculum with no antimicrobials. Subsequently, the plates were incubated for 18- 24 hours at 36 ± 1 °C.
(§2) The FIC for each combination interaction was calculated as follows:
(§3) Then, the summation of FIC (ƩFIC) was calculated for each antimicrobial combination as follows: ƩFIC = FICA + FICB. The results were interpretated as follows: Synergy if ƩFIC ≤ 0.5; Additive if 0.5<ƩFIC ≤ 1; Indifference if […] ≤ 4; and Antagonism if ƩFIC > 4 (Odds [2003]). All antimicrobial synergy experiments were repeated in at least two independent runs.

C. auris CBS12373 [5] = assay: Checkerboard microdilution synergy test; assay type: cell-based, Candida auris
Experimental: as §1, §2, §3

[6] = test system: C. auris CBS12373 biofilm; assay: Anti-adherence (biofilm prevention), MTT reduction assay; assay type: cell-based, Candida auris
Experimental: Finally, 3-(4,5-Dimethylthiazol 2-yl)-2,5-diphenyltetrazolium bromide (MTT) reduction assay was performed to observe the metabolic activities of C. auris.

[7] = test system: C. auris CBS12373 biofilm; assay: Initial biofilm inhibition, MTT reduction assay; assay type: cell-based, Candida auris
[8] = test system: C. auris CBS12373 biofilm; assay type: cell-based, Candida auris; conditions: for Mature biofilm inhibition, blank corrected 570 nm, av. of readings: MTT absorbance
Experimental: To assess disruption of mature biofilms, 2 × 10^5 cells were cultured for 2 h in 96-well flat bottom microtiter plates at 37°C, washed, then incubated for 48 h in fresh media to form mature biofilm. […] For each activity test, the metabolic activities of the yeast cells in biofilms were measured by MTT reduction assay after washing the disrupted biofilm with PBS (Srivastava and Ahmad [2020]).

A. baumannii 005 = assay: MIC Test Strip MBL (imipenem, imipenem with EDTA); assay type: cell-based; conditions: Acinetobacter baumannii, Mueller–Hinton agar, 20 h, 37°C, read-out: Imipenem IMI (MIC, MBL strip)
Experimental: (§4) The test was performed as per the manufacturer’s instructions. Briefly, the strips were applied to a lawn culture of bacteria maintained at 1.5 × 10^8 CFU ml^−1 on Mueller–Hinton agar (Oxoid, UK) and incubated for 20 h at 37°C.

A. baumannii 006 = assay: MIC Test Strip MBL (imipenem, imipenem with EDTA); assay type: cell-based; conditions: Acinetobacter baumannii, Mueller–Hinton agar, 20 h, 37°C, read-out: Imipenem IMI (MIC, MBL strip)
Experimental: as §4

A. baumannii 007 = assay: MIC Test Strip MBL (imipenem, imipenem with EDTA); assay type: cell-based; conditions: Acinetobacter baumannii, Mueller–Hinton agar, 20 h, 37°C, read-out: Imipenem IMI (MIC, MBL strip)
Experimental: as §4

A. baumannii 008 = assay: MIC Test Strip MBL (imipenem, imipenem with EDTA); assay type: cell-based; conditions: Acinetobacter baumannii, Mueller–Hinton agar, 20 h, 37°C, read-out: Imipenem IMI (MIC, MBL strip)
Experimental: as §4

K. pneumoniae JIE2709 = assay: MIC Test Strip MBL (imipenem, imipenem with EDTA); assay type: cell-based; conditions: Klebsiella pneumoniae, Mueller–Hinton agar, 20 h, 37°C, read-out: Imipenem IMI (MIC, MBL strip)
Experimental: as §4

K. pneumoniae JIE2713 = assay: MIC Test Strip MBL (imipenem, imipenem with EDTA); assay type: cell-based; conditions: Klebsiella pneumoniae, Mueller–Hinton agar, 20 h, 37°C, read-out: Imipenem IMI (MIC, MBL strip)
Experimental: as §4

P. aeruginosa 33 = assay: MIC Test Strip MBL (imipenem, imipenem with EDTA); assay type: cell-based; conditions: Pseudomonas aeruginosa, Mueller–Hinton agar, 20 h, 37°C, read-out: Imipenem IMI (MIC, MBL strip)
Experimental: as §4

P. aeruginosa AR-1270 = assay: MIC Test Strip MBL (imipenem, imipenem with EDTA); assay type: cell-based; conditions: Pseudomonas aeruginosa, AR1270, Mueller–Hinton agar, 20 h, 37°C, read-out: Imipenem IMI (MIC, MBL strip)
Experimental: as §4

[9] = Candidozyma auris, read-out: MIC of DrugB (alone, checkerboard)

C[C@@H]1[C@H](O)[C@@H](C)/C=C/C=C/C=C/C=C/C=C/C=C/C=C/[C@H](O[C@@H]2O[C@H](C)[C@@H](O)[C@H](N)[C@@H]2O)C[C@@H]2O[C@](O)(C[C@@H](O)C[C@@H](O)[C@H](O)CC[C@@H](O)C[C@@H](O)CC(=O)O[C@H]1C)C[C@H](O)[C@H]2C(=O)O [Amphotericin B, reference compound]
MIC against C. auris (C. auris CBS12373 [1]): 0.25 µg/mL (≈ 0.271 µM)
MIC (C. auris CBS12373 [1]; Candidozyma auris): 0.27 µM (≈ 0.25 µg/mL)
Increase in MIC with ergosterol (C. auris CBS 10913; ergosterol 200 µg ml^−1): five-fold
MIC (C. auris CBS 10913; Candidozyma auris, CBS10913, RPMI, read-out: MIC in the absence of ergosterol): 0.25 µg/mL (≈ 0.271 µM)
MIC against C. auris (C. auris CBS10913 [2]): 0.25 µg/mL (≈ 0.271 µM)
MIC (C. auris CBS10913 [3]): 0.27 µM (≈ 0.25 µg/mL)

OC(Cn1cncn1)(Cn1cncn1)c1ccc(F)cc1F [Fluconazole, reference compound]
MIC against C. auris (C. auris CBS12373 [1]): 128 µg/mL (≈ 418 µM)
MIC90 (C. auris CBS12373 [1]; Candidozyma auris, C. auris CBS12373 suspension used in the antibiofilm study, read-out: MIC90): 512 µg/mL (≈ 1670 µM)
MIC (C. auris CBS12373 [1]; Candidozyma auris): 418 µM (≈ 128 µg/mL)
MIC (C. auris CBS10913 [4]; [9]): 1 µg/mL
FICDrugB (C. auris CBS10913 [4]; in combination with TM8): 0.0625
MF of antibiotic (modulation factor) (C. auris CBS10913 [4]; in combination with TM8): 16
MIC (C. auris CBS12373 [5]; [9]): 128 µg/mL
FICDrugB (C. auris CBS12373 [5]; in combination with TM8): 0.0625
MF of antibiotic (modulation factor) (C. auris CBS12373 [5]; in combination with TM8 (0.5× MIC)): 16
Biofilm tolerance factor-prevention (BPC/MIC) [6]: 8
Anti-adherence (BPC) ([6]; 2 h adhesion with agent, 48 h growth, ≥90% reduction): 4096 µg/mL
Biofilm tolerance factor-inhibition (MBIC/MIC) [7]: 4
Initial biofilm MBIC ([7]; 4 h adhesion, then 48 h with agent, ≥90% reduction): 2048 µg/mL
Mature biofilm MBEC ([8]; C. auris CBS12373, 48 h biofilm, then 24 h with agent, MTT, ≥90% reduction): 2048 µg/mL
Biofilm tolerance factor-eradication (MBEC/MIC) ([8]; C. auris CBS12373, MTT): 4
Mature biofilm inhibition, blank corrected 570 nm, av. of readings ([8]; agent at 4 (growth control 1.918)): 2.95
Mature biofilm inhibition, blank corrected 570 nm, av. of readings ([8]; agent at 8 (growth control 1.918)): 2.348
Mature biofilm inhibition, blank corrected 570 nm, av. of readings ([8]; agent at 16 (growth control 1.918)): 2.232
Mature biofilm inhibition, blank corrected 570 nm, av. of readings ([8]; agent at 32 (growth control 1.918)): 2.12
Mature biofilm inhibition, blank corrected 570 nm, av. of readings ([8]; agent at 64 (growth control 1.918)): 2.186
Mature biofilm inhibition, blank corrected 570 nm, av. of readings ([8]; agent at 128 (growth control 1.918)): 0.95
Mature biofilm inhibition, blank corrected 570 nm, av. of readings ([8]; agent at 256 (growth control 1.918)): 0.345
Mature biofilm inhibition, blank corrected 570 nm, av. of readings ([8]; agent at 512 (growth control 1.918)): 0.145
Mature biofilm inhibition, blank corrected 570 nm, av. of readings ([8]; agent at 1024 (growth control 1.918)): 0.104
Mature biofilm inhibition, blank corrected 570 nm, av. of readings ([8]; agent at 2048 (growth control 1.918)): 0.008
MIC against C. auris (C. auris CBS10913 [2]): 1 µg/mL (≈ 3.27 µM)
MIC (C. auris CBS10913 [3]): 3.3 µM (≈ 1.01 µg/mL)

C[C@@H](O)[C@H]1C(=O)N2C(C(=O)O)=C(SCCN=CN)C[C@H]12 [Imipenem, imipenem]
MIC (A. baumannii 005): 64 µg/mL (≈ 214 µM)
MIC (A. baumannii 006): 64 µg/mL (≈ 214 µM)
MIC (A. baumannii 007): 96 µg/mL (≈ 321 µM)
MIC (A. baumannii 008): 48 µg/mL (≈ 160 µM)
MIC (K. pneumoniae JIE2709): 16 µg/mL (≈ 53.4 µM)
MIC (K. pneumoniae JIE2713): 128 µg/mL (≈ 428 µM)
MIC (P. aeruginosa 33): 8 µg/mL (≈ 26.7 µM)
MIC (P. aeruginosa AR-1270): 16 µg/mL (≈ 53.4 µM)
